Data reported in patent US12077503B2, “Substituted cyclic amides and their use as herbicides” (FMC CORPORATION, priority 2015, dated 2024).

Key:
Assay type in all cases: in vivo
[1] = tested on: barnyardgrass (Echinochloa crus-galli); assay: Test G Pre-Emergence Protocol; details: Echinochloa crus-galli, pre-emergence, 312 h, evaluated after 13 days; for pest or weed control at 15.625 g/ha: 15.625 g ai/ha, read-out: Barnyard grass damage rating (100=total damage to plant; 0=no damage to plant); for pest or weed control at 62.5 g/ha: 62.5 g ai/ha, 100=total damage to plant, 0=no damage to plant, read-out: plant damage rating, Barnyardgrass; for pest or weed control at 250 g/ha: 250 g ai/ha, read-out: Barnyardgrass damage rating (100=total damage to plant; 0=no damage to plant)
Summary of the method: (§1)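 Pre-emergence spray, 15.625/62.5/250 g/ha, vehicle acetone:water 50:50 + 0.5% Tween 20, applied 1 d after sowing. Glasshouse 24/16° C, 14 h light, 65% RH, watered twice daily. Visual damage rating at 13 d, 0–100 scale.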

[2] = tested on: corn (Zea mays); assay: Test G Pre-Emergence Protocol; details: Zea mays, pre-emergence, 312 h, evaluated after 13 days; for plant injury at 15.625 g/ha: 15.625 g ai/ha; for plant injury at 15.625 g/ha / plant injury at 250 g/ha: read-out: Corn damage rating (100=total damage to plant; 0=no damage to plant); for plant injury at 62.5 g/ha: 62.5 g ai/ha, 100=total damage to plant, 0=no damage to plant, read-out: plant damage rating, Corn; for plant injury at 250 g/ha: 250 g ai/ha
Summary of the method: as §1

[3] = tested on: giant foxtail (Setaria faberi); assay: Test G Pre-Emergence Protocol; details: Setaria faberi, pre-emergence, 312 h, evaluated after 13 days; for pest or weed control at 15.625 g/ha: 15.625 g ai/ha; for pest or weed control at 15.625 g/ha / pest or weed control at 250 g/ha: read-out: Foxtail, Giant damage rating (100=total damage to plant; 0=no damage to plant); for pest or weed control at 62.5 g/ha: 62.5 g ai/ha, 100=total damage to plant, 0=no damage to plant, read-out: plant damage rating, Foxtail, Giant; for pest or weed control at 250 g/ha: 250 g ai/ha
Summary of the method: as §1

[4] = tested on: ivy-leaved morning glory (Ipomoea hederacea); assay: Test G Pre-Emergence Protocol; details: Ipomoea, pre-emergence, 312 h, evaluated after 13 days; for pest or weed control at 15.625 g/ha: 15.625 g ai/ha, read-out: Morning-glory, Ivy-leaved damage rating (100=total damage to plant; 0=no damage to plant); for pest or weed control at 62.5 g/ha: 62.5 g ai/ha, 100=total damage to plant, 0=no damage to plant, read-out: plant damage rating, Morningglory, Ivy-leaved; for pest or weed control at 250 g/ha: 250 g ai/ha, read-out: Morningglory, Ivy-leaved damage rating (100=total damage to plant; 0=no damage to plant)
Summary of the method: as §1

[5] = tested on: redroot pigweed (Amaranthus retroflexus); assay: Test G Pre-Emergence Protocol; details: Amaranthus retroflexus, pre-emergence, 312 h, evaluated after 13 days; for pest or weed control at 15.625 g/ha: 15.625 g ai/ha; for pest or weed control at 15.625 g/ha / pest or weed control at 250 g/ha: read-out: Pigweed, Redroot damage rating (100=total damage to plant; 0=no damage to plant); for pest or weed control at 62.5 g/ha: 62.5 g ai/ha, 100=total damage to plant, 0=no damage to plant, read-out: plant damage rating, Pigweed, Redroot; for pest or weed control at 250 g/ha: 250 g ai/ha
Summary of the method: as §1

[6] = tested on: velvetleaf (Abutilon theophrasti); assay: Test G Pre-Emergence Protocol; details: Abutilon theophrasti, pre-emergence, 312 h, evaluated after 13 days; for pest or weed control at 15.625 g/ha: 15.625 g ai/ha; for pest or weed control at 15.625 g/ha / pest or weed control at 250 g/ha: read-out: Velvetleaf damage rating (100=total damage to plant; 0=no damage to plant); for pest or weed control at 62.5 g/ha: 62.5 g ai/ha, 100=total damage to plant, 0=no damage to plant, read-out: plant damage rating, Velvetleaf; for pest or weed control at 250 g/ha: 250 g ai/ha
Summary of the method: as §1

[7] = tested on: barnyardgrass (Echinochloa crus-galli); assay: Test G Post-Emergence Protocol; details: Echinochloa crus-galli, post-emergence, 312 h; for pest or weed control at 15.625 g/ha: 15.625 g ai/ha, evaluated after 13 days (100=total damage to plant; 0=no damage to plant), read-out: Barnyardgrass damage rating; for pest or weed control at 62.5 g/ha: 62.5 g ai/ha, read-out: Barnyardgrass damage rating (100=total damage to plant; 0=no damage to plant); for pest or weed control at 62.5 g/ha / pest or weed control at 250 g/ha: evaluated after 13 days; for pest or weed control at 250 g/ha: 250 g ai/ha, read-out: damage to plant, Barnyardgrass (100=total damage to plant; 0=no damage to plant)
Summary of the method: (§2)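 A glasshouse post-emergence test: 8-day-old plants sprayed at 15.625, 62.5 or 250 g/ha, then grown at 24/16 °C day/night with 14 h light and 65% humidity. Damage rated 13 days later, 0–100.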

[8] = tested on: corn (Zea mays); assay: Test G Post-Emergence Protocol; details: Zea mays, post-emergence, 312 h; for plant injury at 15.625 g/ha: 15.625 g ai/ha, evaluated after 13 days (100=total damage to plant; 0=no damage to plant), read-out: Corn damage rating; for plant injury at 62.5 g/ha: 62.5 g ai/ha, read-out: Corn damage rating (100=total damage to plant; 0=no damage to plant); for plant injury at 62.5 g/ha / plant injury at 250 g/ha: evaluated after 13 days; for plant injury at 250 g/ha: 250 g ai/ha, read-out: damage to plant, Corn (100=total damage to plant; 0=no damage to plant)
Summary of the method: as §2

[9] = tested on: giant foxtail (Setaria faberi); assay: Test G Post-Emergence Protocol; details: Setaria faberi, post-emergence, 312 h; for pest or weed control at 15.625 g/ha: 15.625 g ai/ha, evaluated after 13 days (100=total damage to plant; 0=no damage to plant), read-out: Foxtail, Giant damage rating; for pest or weed control at 62.5 g/ha: 62.5 g ai/ha, read-out: Foxtail, Giant damage rating (100=total damage to plant; 0=no damage to plant); for pest or weed control at 62.5 g/ha / pest or weed control at 250 g/ha: evaluated after 13 days; for pest or weed control at 250 g/ha: 250 g ai/ha, read-out: damage to plant, Foxtail, Giant (100=total damage to plant; 0=no damage to plant)
Summary of the method: as §2

[10] = tested on: ivy-leaved morning glory (Ipomoea hederacea); assay: Test G Post-Emergence Protocol; details: Ipomoea, post-emergence, 312 h; for pest or weed control at 15.625 g/ha: 15.625 g ai/ha, evaluated after 13 days (100=total damage to plant; 0=no damage to plant), read-out: Morningglory, Ivy-leaved damage rating; for pest or weed control at 62.5 g/ha: 62.5 g ai/ha, read-out: Morningglory, Ivy-leaved damage rating (100=total damage to plant; 0=no damage to plant); for pest or weed control at 62.5 g/ha / pest or weed control at 250 g/ha: evaluated after 13 days; for pest or weed control at 250 g/ha: 250 g ai/ha, read-out: damage to plant, Morningglory, Ivy-leaved (100=total damage to plant; 0=no damage to plant)
Summary of the method: as §2

[11] = tested on: redroot pigweed (Amaranthus retroflexus); assay: Test G Post-Emergence Protocol; details: Amaranthus retroflexus, post-emergence, 312 h; for pest or weed control at 15.625 g/ha: 15.625 g ai/ha, evaluated after 13 days (100=total damage to plant; 0=no damage to plant), read-out: Pigweed, Redroot damage rating; for pest or weed control at 62.5 g/ha: 62.5 g ai/ha, read-out: Pigweed, Redroot damage rating (100=total damage to plant; 0=no damage to plant); for pest or weed control at 62.5 g/ha / pest or weed control at 250 g/ha: evaluated after 13 days; for pest or weed control at 250 g/ha: 250 g ai/ha, read-out: damage to plant, Pigweed, Redroot (100=total damage to plant; 0=no damage to plant)
Summary of the method: as §2

[12] = tested on: velvetleaf (Abutilon theophrasti); assay: Test G Post-Emergence Protocol; details: Abutilon theophrasti, post-emergence, 312 h; for pest or weed control at 15.625 g/ha: 15.625 g ai/ha, evaluated after 13 days (100=total damage to plant; 0=no damage to plant), read-out: Velvetleaf damage rating; for pest or weed control at 62.5 g/ha: 62.5 g ai/ha, read-out: Velvetleaf damage rating (100=total damage to plant; 0=no damage to plant); for pest or weed control at 62.5 g/ha / pest or weed control at 250 g/ha: evaluated after 13 days; for pest or weed control at 250 g/ha: 250 g ai/ha, read-out: damage to plant, Velvetleaf (100=total damage to plant; 0=no damage to plant)
Summary of the method: as §2

Row | Compound | pest or weed control at 15.625 g/ha [1] [%] | pest or weed control at 62.5 g/ha [1] [%] | pest or weed control at 250 g/ha [1] [%] | plant injury at 15.625 g/ha [2] [%] | plant injury at 62.5 g/ha [2] [%] | plant injury at 250 g/ha [2] [%] | pest or weed control at 15.625 g/ha [3] [%] | pest or weed control at 62.5 g/ha [3] [%] | pest or weed control at 250 g/ha [3] [%] | pest or weed control at 15.625 g/ha [4] [%] | pest or weed control at 62.5 g/ha [4] [%] | pest or weed control at 250 g/ha [4] [%] | pest or weed control at 15.625 g/ha [5] [%] | pest or weed control at 62.5 g/ha [5] [%] | pest or weed control at 250 g/ha [5] [%] | pest or weed control at 15.625 g/ha [6] [%] | pest or weed control at 62.5 g/ha [6] [%] | pest or weed control at 250 g/ha [6] [%] | pest or weed control at 15.625 g/ha [7] [%] | pest or weed control at 62.5 g/ha [7] [%] | further results
1 | COC(=O)c1cc([C@H]2CN(C)C(=O)[C@@H]2C(=O)Nc2ccccc2F)ccc1Cl (racemic) [Compound 1460] | 0 | 70 | 90 | 0 | 0 | 10 | 10 | 80 | 90 | 0 | 40 | 50 | 0 | 40 | 70 | 0 | 0 | 0 | 20 | 30 | pest or weed control at 250 g/ha [7]: 60%; plant injury at 15.625 g/ha [8]: 10%; plant injury at 62.5 g/ha [8]: 0%; plant injury at 250 g/ha [8]: 40%; pest or weed control at 15.625 g/ha [9]: 40%; pest or weed control at 62.5 g/ha [9]: 70%; pest or weed control at 250 g/ha [9]: 70%; pest or weed control at 15.625 g/ha [10]: 0%; pest or weed control at 62.5 g/ha [10]: 0%; pest or weed control at 250 g/ha [10]: 10%; pest or weed control at 15.625 g/ha [11]: 0%; pest or weed control at 62.5 g/ha [11]: 10%; pest or weed control at 250 g/ha [11]: 20%; pest or weed control at 15.625 g/ha [12]: 0%; pest or weed control at 62.5 g/ha [12]: 0%; pest or weed control at 250 g/ha [12]: 10%
2 | Cc1nc(F)ccc1[C@@H]1CN(C)C(=O)[C@H]1C(=O)Nc1cccc(F)c1F (racemic) [Compound 1492] | 0 | 20 | 80 | 0 | 0 | 0 | 0 | 20 | 80 | 0 | 0 | 0 | 0 | 0 | 0 | 0 | 0 | 0 | 0 | 30 | pest or weed control at 250 g/ha [7]: 60%; plant injury at 15.625 g/ha [8]: 0%; plant injury at 62.5 g/ha [8]: 0%; plant injury at 250 g/ha [8]: 0%; pest or weed control at 15.625 g/ha [9]: 0%; pest or weed control at 62.5 g/ha [9]: 40%; pest or weed control at 250 g/ha [9]: 60%; pest or weed control at 15.625 g/ha [10]: 0%; pest or weed control at 62.5 g/ha [10]: 0%; pest or weed control at 250 g/ha [10]: 0%; pest or weed control at 15.625 g/ha [11]: 0%; pest or weed control at 62.5 g/ha [11]: 0%; pest or weed control at 250 g/ha [11]: 0%; pest or weed control at 15.625 g/ha [12]: 0%; pest or weed control at 62.5 g/ha [12]: 0%; pest or weed control at 250 g/ha [12]: 20%
